The text below walks through data of ChEMBL document CHEMBL1146385, “Discovery of novel phenoxyacetic acid derivatives as antimycobacterial agents” (2007).

≈ marks a conversion by molar mass, not a printed value.

The assay concerns Mycobacterium tuberculosis. The experiment in a line: Antimycobacterial activity against Mycobacterium tuberculosis H37Rv ATCC 27294 by broth micro dilution assay. It is filed as functional.
The molecule `COc1cc(C2=NN(C(N)=S)C(Cc3ccccc3)C2)ccc1OCC(=O)O` (configuration not stated) displayed a minimum inhibitory concentration (MIC) of 6.25 µg/mL (≈ 15.6 µM).

In turn, `COc1cc(C2=NN(C(N)=S)C(c3ccccc3O)C2)ccc1OCC(=O)O` (configuration not stated) registered an MIC of 0.58 µg/mL (≈ 1.44 µM). Against the preceding molecule, the MIC is about 11-fold lower.

`COc1cc(C2=NN(C(N)=O)C(c3ccccc3)C2)ccc1OCC(=O)O` (configuration not stated) had an MIC of 6.25 µg/mL (≈ 16.9 µM).

On to `COc1cc(C2=NN(C(N)=O)C(c3ccc(C)cc3)C2)ccc1OCC(=O)O` (configuration not stated), for which the minimal inhibitory concentration (MIC) was found to be 4.12 µg/mL (≈ 10.7 µM). Compared with the last molecule, the MIC is about 1.5-fold lower.

On to `COc1cc(C2=NN(C(N)=S)C(c3ccc(O)cc3)C2)ccc1OCC(=O)O` (configuration not stated), for which the MIC was 0.2 µg/mL (≈ 0.498 µM).

`COc1cc(C2=NN(C(N)=O)C(c3ccccc3Cl)C2)ccc1OCC(=O)O` (configuration not stated) came in with an MIC of 1.26 µg/mL (≈ 3.12 µM).

As for `COc1cc(C2=NN(C(N)=O)C(c3ccc(N)cc3)C2)ccc1OCC(=O)O` (configuration not stated), the minimal inhibitory concentration (MIC) turned out to be 5.32 µg/mL (≈ 13.8 µM).

Consider `COc1cc(C2=NN(C(N)=S)C(c3ccc(C)cc3)C2)ccc1OCC(=O)O` (configuration not stated), for which the MIC amounted to 6.15 µg/mL (≈ 15.4 µM).

For `COc1cc(C2=NN(C(N)=S)C(c3ccc(Cl)cc3)C2)ccc1OCC(=O)O` (configuration not stated), the minimum inhibitory concentration (MIC) is 0.06 µg/mL (≈ 0.143 µM).

For the molecule `COc1cc(C2=NN(C(N)=S)C(c3ccccc3Cl)C2)ccc1OCC(=O)O` (configuration not stated), the minimal inhibitory concentration (MIC) was determined as 0.12 µg/mL (≈ 0.286 µM).

For `COc1cc(C2=NN(C(N)=O)C(c3ccc(F)cc3)C2)ccc1OCC(=O)O` (configuration not stated), inhibition of growth (MIC) required 3.16 µg/mL (≈ 8.16 µM).

Take `COc1cc(C2=NN(C(N)=O)C(c3ccc(Cl)cc3)C2)ccc1OCC(=O)O` (configuration not stated): the minimum inhibitory concentration (MIC) came out at 0.13 µg/mL (≈ 0.322 µM).

The molecule `COc1cc(C2=NN(C(N)=O)C(Cc3ccccc3)C2)ccc1OCC(=O)O` (configuration not stated) gave an MIC of 6.25 µg/mL (≈ 16.3 µM). This MIC lies about 48-fold higher than the previous one.

`COc1cc(C2=NN(C(N)=S)C(c3ccc(N)cc3)C2)ccc1OCC(=O)O` (configuration not stated) returned an MIC of 12.5 µg/mL (≈ 31.2 µM).

`COc1cc(C2=NN(C(N)=S)C(c3cccc([N+](=O)[O-])c3)C2)ccc1OCC(=O)O` (configuration not stated) displayed an MIC of 6.25 µg/mL (≈ 14.5 µM).

`COc1cc(C2=NN(C(N)=S)C(c3ccccc3)C2)ccc1OCC(=O)O` (configuration not stated): the MIC is 6.25 µg/mL (≈ 16.2 µM).

As to `COc1cc(C2=NN(C(N)=O)C(c3ccccc3O)C2)ccc1OCC(=O)O` (configuration not stated), the MIC worked out at 0.58 µg/mL (≈ 1.51 µM).

The molecule `COc1cc(C2=NN(C(N)=O)C(c3cccc([N+](=O)[O-])c3)C2)ccc1OCC(=O)O` (configuration not stated) registered an MIC of 6.25 µg/mL (≈ 15.1 µM).

`COc1cc(C2=NN(C(N)=S)C(c3ccc(F)cc3)C2)ccc1OCC(=O)O` (configuration not stated) gave an MIC of 0.96 µg/mL (≈ 2.38 µM).

In the case of `COc1cc(C2=NN(C(N)=O)C(c3ccc(O)cc3)C2)ccc1OCC(=O)O` (configuration not stated), the minimum inhibitory concentration (MIC) came to 1.23 µg/mL (≈ 3.19 µM).

For `COc1cc(C2=NN(C(N)=O)C(c3ccc([N+](=O)[O-])cc3)C2)ccc1OCC(=O)O` (configuration not stated), it took 6.25 µg/mL (≈ 15.1 µM) to inhibit growth (MIC).

`COc1cc(C2=NN(C(N)=S)C(c3ccc([N+](=O)[O-])cc3)C2)ccc1OCC(=O)O` (configuration not stated) gave a minimal inhibitory concentration (MIC) of 6.32 µg/mL (≈ 14.7 µM).
